Data: PMC3775607 (Chembiochem : a European journal of chemical biology, 2012)
pIC50: −log10 of the molar value.

Key:
p38α [1] = target: T1, p38α (Mus musculus, UniProt P47811); test: competition with covalent DRS probe […] at […], in-gel fluorescence; type: binding
p38α [2] = target: T1, p38α; test: radiometric kinase assay with GST-ATF2; type: biochemical

T1 sequence (P47811 2-360): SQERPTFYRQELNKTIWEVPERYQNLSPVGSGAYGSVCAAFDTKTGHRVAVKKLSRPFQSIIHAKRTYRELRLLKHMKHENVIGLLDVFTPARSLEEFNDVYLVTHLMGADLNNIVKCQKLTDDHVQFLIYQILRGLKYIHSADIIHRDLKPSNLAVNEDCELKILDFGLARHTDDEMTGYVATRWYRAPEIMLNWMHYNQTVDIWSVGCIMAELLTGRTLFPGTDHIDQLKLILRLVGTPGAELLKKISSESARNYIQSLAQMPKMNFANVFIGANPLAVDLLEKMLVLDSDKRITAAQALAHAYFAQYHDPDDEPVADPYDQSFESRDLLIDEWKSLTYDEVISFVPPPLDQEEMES

| pIC50 (p38α [2]) | Structure (SMILES) | competition with covalent DRS probe 3 at 200 μM, in-gel fluorescence (p38α [1]) |
| --- | --- | --- |
|  | O=C(/C=C/c1ccc(O)c(O)c1)OCCc1ccccc1 [CAPE, caffeic acid phenethyl ester] | rooperol shows the strongest inhibition, followed closely by the honey bee propolis-derived caffeic acid phenethyl ester (CAPE |
| 4.73 | Oc1ccc(C#CC/C=C/c2ccc(O)c(O)c2)cc1O [rooperol] |  |
